Results from BindingDB's records for patent US20240417410 (Hoffmann-La Roche, 2024).

Target: Peptidyl-prolyl cis-trans isomerase A (Homo sapiens, UniProt P62937)
Test: CYPA Binding Analysis by Surface Plasmon Resonance (SPR) Assay
Experimental: All SPR experiments were conducted on a Biacore 8K+ instrument (Cytiva). Recombinant biotinylated CYPA protein with a C-terminal AVI tag was purified and immobilized on flow cell 2 of SA chip (Cytiva, BR100531), with the flow cell 1 as the blank reference. The running buffer was HBS-P+ Buffer (Cytiva, BR100827, 0.01 M HEPES pH 7.4,0.15 M NaCl, 0.05% v/v Surfactant P20), and the flow rate was 10 μL/min. The immobilization level was achieved to about 1800 response units (RU). Compounds were 3-fold serially diluted to 1.5-3333 nM using HBS-P+Buffer with a final DMSO concentration of 1.5%, and then loaded to flow through the chip surface at a rate of 30 μL/min with HBS-P+Buffer containing 1.5% DMSO as the running buffer. Experiments were performed at 25° C. The contact time and dissociation time were set to 60 s and 200 s, respectively. After binding and dissociation of each sample, the chip was regenerated using 1 M NaCl with a short contact time of 19 s at a rate of 60 μL/min. The sensorgrams were analyzed using Biacore Insight Evaluation software with 1:1 kinetics binding model to determine the association rate constant (kon), dissociation rate constant (koff) and equilibrium dissociation constant (KD).

Peptidyl-prolyl cis-trans isomerase A, sequence (P62937 whole entry): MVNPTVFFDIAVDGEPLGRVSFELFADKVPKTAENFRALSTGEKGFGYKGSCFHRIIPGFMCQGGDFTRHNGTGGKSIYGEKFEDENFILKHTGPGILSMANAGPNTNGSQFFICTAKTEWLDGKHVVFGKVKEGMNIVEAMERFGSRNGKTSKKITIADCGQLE

Kd: 30 nM
Structure (SMILES): CCn1c(-c2cc(N3CCN(C)CC3)cnc2[C@H](C)OC)c2c3cc(ccc31)-c1csc(n1)C[C@H](NC(=O)[C@H]1C[C@@H]1C)C(=O)N1CCC[C@H](N1)C(=O)OCC(C)(C)O2 [US20240417410, Example A122]
